# Experiments:
# [1] = test system: AN3-CA; test: CellTiter-Glo luminescent cell viability assay (CTG) with AN3-CA cells; assay type: functional, cell-based; conditions: Homo sapiens
# [2] = NanoBRET assay (AKT3); conditions: Homo sapiens
# [3] = NanoBRET assay (AKT2); conditions: Homo sapiens
# [4] = NanoBRET assay (AKT1); conditions: Homo sapiens
# [5] = test system: ZR-75-1; test: CellTiter-Glo luminescent cell viability assay (CTG) with ZR-75-1 cells; assay type: functional, cell-based; conditions: Homo sapiens
# [6] = target: RAC-alpha serine/threonine-protein kinase (Homo sapiens, UniProt P31749); test: Homogeneous Time Resolved Fluorescence (HTRF) assay (AKT1)
# Sequence of RAC-alpha serine/threonine-protein kinase (P31749 whole entry): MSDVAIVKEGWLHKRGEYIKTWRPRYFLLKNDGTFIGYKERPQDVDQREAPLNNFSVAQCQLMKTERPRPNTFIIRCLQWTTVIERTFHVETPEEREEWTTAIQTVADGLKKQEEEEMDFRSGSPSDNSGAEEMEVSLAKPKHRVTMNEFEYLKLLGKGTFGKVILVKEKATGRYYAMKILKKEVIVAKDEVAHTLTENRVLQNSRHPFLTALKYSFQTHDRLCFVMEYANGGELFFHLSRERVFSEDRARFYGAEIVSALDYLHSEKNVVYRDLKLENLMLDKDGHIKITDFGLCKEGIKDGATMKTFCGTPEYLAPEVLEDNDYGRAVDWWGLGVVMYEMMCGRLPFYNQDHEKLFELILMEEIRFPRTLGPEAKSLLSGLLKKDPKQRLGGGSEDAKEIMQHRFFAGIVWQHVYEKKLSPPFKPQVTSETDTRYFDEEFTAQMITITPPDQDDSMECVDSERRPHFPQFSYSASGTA
structure (smiles),measurement,setting,value
C=CC(=O)Nc1ccc2[nH]c(=O)n(C3CCN(Cc4ccc(-c5ccc6c(c5)NC(=O)CO6)cc4)CC3)c2c1 [RL2578],EC50,[1],18 µM (not active)
same,EC50,[2],9.3 µM (not active)
same,IC50,[2],18 µM (not active)
same,EC50,[3],4.8 µM (not active)
same,IC50,[3],8.3 µM (not active)
same,EC50,[4],3.5 µM (not active)
same,IC50,[4],1.9 µM (not active)
same,EC50,[5],4.2 µM (not active)
same,IC50,[6],9.2 µM (not active)
